The text below walks through data of US20120100072A1, “PET IMAGING OF FIBROGENESIS” (GE HEALTHCARE LIMITED, priority 2009, published 2012).

For assay [1], the target named is T1, membranes prepared from EA-Hy926 cells (integrin αvβ3) (Homo sapiens, UniProt P05106+P06756).
T1 construct: membranes from the human endothelial adenocarcinoma cell line EA-Hy926 were prepared; endogenous in cells; host or cells: EA-Hy926 (human endothelial cell line), purified membrane fraction
Kind of assay: Competitive 125I-echistatin binding to membranes prepared from EA-Hy926 cells. As to conditions: competition with 125I-echistatin, 1 hour at 37° C., read-out: affinity (inhibition constant). How it is done: The inhibition constant was measured using a previously-described membrane binding assay (Indrevoll et al, Bioorg & Med Chem Lett, 2006, 16, 6190-6193). In brief, membranes from the human endothelial adenocarcinoma cell line EA-Hy926 were prepared and the Kd calculated for the purified membrane fraction. A competitive binding assay was then established to measure inhibition constants. ^125I-echistatin (GE Healthcare; Code IM304) was used as the labelled ligand and cold echistatin as a reference standard. A total of sixteen dilutions of cold test compound (either cold echistatin or cold PET tracer) were prepared and mixed with a combination of ^125I-echistatin and membrane prior to incubation for 1 hour at 37° C. Following several washes, the bound material was harvested on a filter using a Skatron micro harvester. The filterspots were finally excised and counted in a Packard γ-counter.

The next assay relates to rat livers. The assay is classed as in vivo. How it is done: Outbred male Sprague Dawley rats (180-200 g; Charles River) were used in all bile duct ligation (BDL) and sham studies. After 6 days acclimatization rats were divided into 2 groups (BDL group and sham group). For the BDL animals, the abdomen was shaved and swabbed with betadine solution followed by 5 mg/kg carprofen subcutaneously (s.c.) and 5 mg/kg bupronorphine s.c. and under Isoflurane anaesthesia a mid-line laparotomy was performed and the common bile duct located. Bile duct was double ligated, the first ligation made between the junction of the hepatic ducts and the second above the entrance of the pancreatic ducts. The second group (sham animals) abdomen was shaved and swabbed with betadine solution followed by 5 mg/kg carprofen s.c. and 5 mg/kg bupronorphine s.c. Animals underwent sham surgery where bile duct was manipulated and a suture passed under the bile duct. Before closing 2-3 ml saline was administered into the peritoneum of each animal. […] Animals were closely monitored for the duration of the experiment.
For assessment of PET Tracer 1 in the BDL rat model, static PET images were acquired longitudinally (imaged at 60-90 minutes post-injection) at days 2, 5, 9, 15 and 30 post bile duct ligation surgery or sham surgery. […] Data was analysed using Asipro and Amide software. […]

The next assay relates to alcoholic liver fibrosis. As to conditions: baboons; cited from earlier work.

pKi: −log10 of the molar value.

`N=C(N)NCCC[C@@H]1NC(=O)[C@@H]2CSSC[C@H](NC(=O)[C@H](CC(=O)O)NC(=O)CNC1=O)C(=O)N[C@@H](Cc1ccccc1)C(=O)N[C@H](C(=O)NCCOCCOCCOCCNC(=O)COCC(N)=O)CSCC(=O)N[C@@H](CCCCNC(=O)COCC(=O)NCCOCCOCCOCCOCCOCCNC(=O)CO/N=C/c1ccc([18F])cc1)C(=O)N2` [PET Tracer 1]: the pKi in assay [1] was 8.00 to 8.30. The “difference in uptake between BDL liver and sham” value with rat livers (day 30 post surgery) is listed as “no significant difference”. Besides, in the assay on rat livers (days 2-15 post surgery (p<0.05)), the “difference in liver retention between BDL and sham operated animals” value is reported as “significant difference”.
For “Polyenephosphatidylcholine [Polyenephosphatidylcholine (PPC)]”, the “effect on alcoholic liver fibrosis” value in the assay on alcoholic liver fibrosis is “prevented alcoholic liver fibrosis”.
